Target: T1, Mucosa-associated lymphoid tissue lymphoma translocation protein 1 (Homo sapiens, UniProt Q9UDY8)
T1 sequence (Q9UDY8 whole entry): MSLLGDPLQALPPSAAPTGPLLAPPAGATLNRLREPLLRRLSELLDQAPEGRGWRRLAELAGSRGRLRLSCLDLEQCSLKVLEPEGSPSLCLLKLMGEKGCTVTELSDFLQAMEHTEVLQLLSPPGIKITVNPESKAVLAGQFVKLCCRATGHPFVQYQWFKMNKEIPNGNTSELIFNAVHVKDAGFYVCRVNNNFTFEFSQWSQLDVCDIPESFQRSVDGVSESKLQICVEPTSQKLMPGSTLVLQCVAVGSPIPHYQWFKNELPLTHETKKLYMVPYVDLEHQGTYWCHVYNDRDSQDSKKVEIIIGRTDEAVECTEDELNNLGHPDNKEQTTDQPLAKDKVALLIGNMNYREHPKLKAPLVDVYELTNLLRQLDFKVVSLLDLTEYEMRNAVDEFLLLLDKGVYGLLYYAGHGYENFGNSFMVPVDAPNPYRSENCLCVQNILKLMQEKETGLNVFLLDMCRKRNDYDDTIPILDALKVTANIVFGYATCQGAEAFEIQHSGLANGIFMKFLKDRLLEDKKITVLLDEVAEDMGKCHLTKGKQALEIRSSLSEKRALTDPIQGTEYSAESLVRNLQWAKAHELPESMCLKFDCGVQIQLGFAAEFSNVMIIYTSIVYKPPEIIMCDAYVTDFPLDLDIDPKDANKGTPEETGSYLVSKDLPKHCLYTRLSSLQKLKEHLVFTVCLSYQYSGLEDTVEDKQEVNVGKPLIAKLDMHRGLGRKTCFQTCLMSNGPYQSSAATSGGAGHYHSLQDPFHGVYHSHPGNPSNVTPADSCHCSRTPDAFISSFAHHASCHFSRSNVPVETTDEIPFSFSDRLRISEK
Assay: Inhibition of Protease Activity Assay: Full-length cDNA of human MALT1 gene (GenBank accession No: AB026118.1) amplified by PCR was inserted in flame to a SalI site located downstream of GST gene in a pGEX6P3 vector (GE Healthcare Japan Corp.) to prepare a vector (hereinafter, referred to as a pGEX6P3-MALT1 vector). Subsequently, E. coli for protein expression (BL21-RIL-codon plus-DE3, Agilent Technologies, Inc.) was transformed with the pGEX6P3-MALT1 vector and then analyzed by ampicillin resistance screening and colony PCR to obtain an E. coli strain expressing recombinant GST fusion MALT1. Protein expression was induced with isopropyl-(3-thiogalactopyranoside. After the expression induction, E. coli precipitates were recovered by centrifugation from the E. coli culture solution, and the E. coli precipitates were homogenized and then centrifuged to obtain a supernatant. The supernatant was purified using GSTrap FF column (GE Healthcare Japan Corp.) to obtain recombinant GST fusion MALT1.B) Evaluation of Inhibition of Protease Activity of MALT1:To 89 μL of an enzyme solution ([…] GST fusion MALT1, 50 mmol/L MES, 150 mmol/L NaCl, 10% sucrose, 0.1% CHAPS, 10 mmol/L dithiothreitol, and 1 mol/L tri-ammonium citrate) per specimen, 1 μL of a test compound (DMSO-diluted solution) of each concentration was added to prepare a mixed solution. […]

IC50: 572 nM
SMILES: CCCC(=O)/N=C(\N)NCc1cnc(-c2ccc(Cl)cc2)c(-c2ccc(Cl)cc2)c1
